Reference: patent US7230096B2, “Inhibitors against galectins” (priority 2001, dated 2007)

Experiments:
[1] = molecular target: T1, recombinant human galectin-3 (Homo sapiens, UniProt P17931); assay: Inhibition of galectin-3 binding to Galα3Galβ4GlcNAcβ-HRP conjugate (galectin-3 coated microwells); details: for IC50: competitive inhibition of Galα3Galβ4GlcNAcβ trisaccharide:HRP conjugate binding to galectin-3 coated microwells, five-fold serial dilutions; for Krel: ratio of IC50 of reference compound 25 and IC50 of the inhibitor
T1 construct: made in house; host or cells: Escherichia coli
Procedure: NMR-spectra were recorded with a Bruker DRX-400 instrument. Chemical shifts are given in ppm, with reference to internal CHCl3 (δ 7.26 ppm) or HDO (δ 4.81 ppm). Chemical shifts and coupling constants were obtained from ^1H-NMR and proton resonances were assigned from COSY experiments. High-resolution FAB mass spectra (HRMS) were recorded with a JEOL SX-120 instrument. MALDI-TOF Spectra were recorded with a Bruker, Biflex instrument. Column chromatography was performed on SiO2 (Matrex, 60 Å, 35–70 μm, Grace Amicon) and TLC was carried out on SiO2 60 F254 (Merck) with detection under UV light and developed with aqueous sulfuric acid. Concentrations were made using rotary evaporation with bath temperature at or below 40° C. CH2Cl2 and CH3CN were dried by distillation from CaH2. Pyridine was dried over 4 Å molecular sieves. DMF was distilled and dried over 4 Å molecular sieves. MeOH and EtOH were dried over 3 Å molecular sieves. Microwell plates were from Nalge Nunc International (Nunc-immuno plate, maxisorp surface). PBS containing 0.05% Tween 20 is abbreviated PBS-T and PBS-T containing 1% BSA is abbreviated PBSA-T. Recombinant human galectin-3 was produced in Escherichia coli and purified as previously described (S. M. Massa et al, 1993). […] Microwell plates were developed with a TMB-peroxidase substrate kit (BioRad 172–1066) according to the manufacturers recommendations.
The compounds prepared above (12–24) were tested for their ability to inhibiting the binding of galectin-3 to a Galα3Galβ4GlcNAcβ trisaccharide:horseradish peroxidase conjugate.
Screening experiments. […] The wells were washed with PBS-T after 1 hour incubation at room temperature; followed by development with the TMB-peroxidase substrate kit. The reaction was stopped after 60 min by addition of 1N sulfuric acid (100 μL/well) and optical density was read at 450 nm. Each experiment was conducted twice with each sample in duplicate. […] Microtiter plate wells were coated with recombinant galectin-3 (10 μg/ml, 50 μl/well) from E. coli at 4° C. overnight, then washed three times with PBS-T. The wells were blocked with PBSA-T (100 μl/well) for 1 hour at room temperature, followed by washing with PBS-T. To the first well was added 125 μL of inhibitors 16, 18–19and 25 (0.2 mM in PBS-T). A five-fold serial dilution was performed by transfering 25 μL from the first well to a second well containing 100 μL PBS-T, mixing, then transfering 25 μL from the second well to a third well also containing 100 μL PBS-T, and so on to the eight well from which 25 μL were discarded. The dilution series was done in duplicate. […] Incubation, washing, and detection was performed as described above. The data was analyzed with non-linear regression analysis using the program Kaleidagraph™ from Synergy Software.

galectins = details: cited from earlier work

T1 sequence (P17931 whole entry): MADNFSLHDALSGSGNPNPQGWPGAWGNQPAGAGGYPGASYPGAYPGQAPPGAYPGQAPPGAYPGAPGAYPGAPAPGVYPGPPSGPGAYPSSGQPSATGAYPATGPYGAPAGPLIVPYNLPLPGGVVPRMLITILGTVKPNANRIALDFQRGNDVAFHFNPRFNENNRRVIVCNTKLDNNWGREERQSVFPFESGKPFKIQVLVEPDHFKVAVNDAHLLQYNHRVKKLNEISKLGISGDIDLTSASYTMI

SMILES | IC50 [1] [µM] | Krel [1] | inhibition at 40 µM ([1]; 40 μM inhibitor concentration, screening experiment, read-out: Percent inhibition of Galα3Galβ4GlcNAcβ:HRP conjugate binding to galectin-3) [%] | affinity relative to lactose (times lower) (galectins; galectins, compared with lactose) | Kd (galectins; all galectins) [µM]
CO[C@@H]1O[C@H](CO)[C@@H](O[C@@H]2O[C@H](CO)[C@H](O)[C@H](NC(=O)c3ccccc3)[C@H]2O)[C@H](O)[C@H]1NC(C)=O [Compound 16, methyl 2-acetamido-2-deoxy-4-O-(3-benzamido-3-deoxy-β-D-galactopyranosyl)-β-D-glucopyranoside] | 23 | 9 |  |  | 
COc1c(F)c(F)c(C(=O)N[C@H]2[C@@H](O)[C@@H](CO)O[C@@H](O[C@H]3[C@H](O)[C@@H](NC(C)=O)[C@H](OC)O[C@@H]3CO)[C@@H]2O)c(F)c1F [Compound 18, methyl 2-acetamido-2-deoxy-4-O-(3-[4-methoxy-2,3,5,6-tetrafluorobenzamido]-3-deoxy-β-D-galactopyranosyl)-β-D-glucopyranoside] | 4.8 | 41 |  |  | 
CO[C@@H]1O[C@H](CO)[C@@H](O[C@@H]2O[C@H](CO)[C@H](O)[C@H](NC(=O)c3c(F)c(F)c(F)c(F)c3C(=O)O)[C@H]2O)[C@H](O)[C@H]1NC(C)=O [Compound 19, methyl 2-acetamido-2-deoxy-4-O-(3-[2-carboxy-3,4,5,6-tetrafluorobenzamido]-3-deoxy-β-D-galactopyranosyl)-β-D-glucopyranoside] | 11.2 | 18 |  |  | 
CO[C@@H]1O[C@H](CO)[C@@H](O[C@@H]2O[C@H](CO)[C@H](O)[C@H](O)[C@H]2O)[C@H](O)[C@H]1NC(C)=O [Compound 25, methyl 4-O-β-D-galactopyranosyl-2-acetamido-2-deoxy-β-D-glucopyranoside, reference compound] | 199 | 1 | 13 |  | 
O=C[C@H](O)[C@@H](O)[C@@H](O)[C@H](O)CO [D-galactose] |  |  |  | 50–100 times lower | 
OC[C@H]1O[C@@H](O[C@H]2[C@H](O)[C@@H](O)C(O)O[C@@H]2CO)[C@H](O)[C@@H](O)[C@H]1O (some centres unmarked) [lactose] |  |  |  |  | 500 to 1000
